Experimental data taken from US9340504B2, “Pyridine and piperidine derivatives as novel sodium channel blockers” (priority 2013, dated 2016).

The compounds below were run against human Nav1.7 (Homo sapiens (Human), UniProt Q15858) (assay: FLIPR or FLIPR TETRA sodium dye assay with KCl and test article pre-incubation). Settings: read-out: Nav1.7 Activity (μM) FLIPR assay IC50 (μM) ± SEM.
Chain of human Nav1.7 (Q15858 with tags, fused parts or gaps limits assumed): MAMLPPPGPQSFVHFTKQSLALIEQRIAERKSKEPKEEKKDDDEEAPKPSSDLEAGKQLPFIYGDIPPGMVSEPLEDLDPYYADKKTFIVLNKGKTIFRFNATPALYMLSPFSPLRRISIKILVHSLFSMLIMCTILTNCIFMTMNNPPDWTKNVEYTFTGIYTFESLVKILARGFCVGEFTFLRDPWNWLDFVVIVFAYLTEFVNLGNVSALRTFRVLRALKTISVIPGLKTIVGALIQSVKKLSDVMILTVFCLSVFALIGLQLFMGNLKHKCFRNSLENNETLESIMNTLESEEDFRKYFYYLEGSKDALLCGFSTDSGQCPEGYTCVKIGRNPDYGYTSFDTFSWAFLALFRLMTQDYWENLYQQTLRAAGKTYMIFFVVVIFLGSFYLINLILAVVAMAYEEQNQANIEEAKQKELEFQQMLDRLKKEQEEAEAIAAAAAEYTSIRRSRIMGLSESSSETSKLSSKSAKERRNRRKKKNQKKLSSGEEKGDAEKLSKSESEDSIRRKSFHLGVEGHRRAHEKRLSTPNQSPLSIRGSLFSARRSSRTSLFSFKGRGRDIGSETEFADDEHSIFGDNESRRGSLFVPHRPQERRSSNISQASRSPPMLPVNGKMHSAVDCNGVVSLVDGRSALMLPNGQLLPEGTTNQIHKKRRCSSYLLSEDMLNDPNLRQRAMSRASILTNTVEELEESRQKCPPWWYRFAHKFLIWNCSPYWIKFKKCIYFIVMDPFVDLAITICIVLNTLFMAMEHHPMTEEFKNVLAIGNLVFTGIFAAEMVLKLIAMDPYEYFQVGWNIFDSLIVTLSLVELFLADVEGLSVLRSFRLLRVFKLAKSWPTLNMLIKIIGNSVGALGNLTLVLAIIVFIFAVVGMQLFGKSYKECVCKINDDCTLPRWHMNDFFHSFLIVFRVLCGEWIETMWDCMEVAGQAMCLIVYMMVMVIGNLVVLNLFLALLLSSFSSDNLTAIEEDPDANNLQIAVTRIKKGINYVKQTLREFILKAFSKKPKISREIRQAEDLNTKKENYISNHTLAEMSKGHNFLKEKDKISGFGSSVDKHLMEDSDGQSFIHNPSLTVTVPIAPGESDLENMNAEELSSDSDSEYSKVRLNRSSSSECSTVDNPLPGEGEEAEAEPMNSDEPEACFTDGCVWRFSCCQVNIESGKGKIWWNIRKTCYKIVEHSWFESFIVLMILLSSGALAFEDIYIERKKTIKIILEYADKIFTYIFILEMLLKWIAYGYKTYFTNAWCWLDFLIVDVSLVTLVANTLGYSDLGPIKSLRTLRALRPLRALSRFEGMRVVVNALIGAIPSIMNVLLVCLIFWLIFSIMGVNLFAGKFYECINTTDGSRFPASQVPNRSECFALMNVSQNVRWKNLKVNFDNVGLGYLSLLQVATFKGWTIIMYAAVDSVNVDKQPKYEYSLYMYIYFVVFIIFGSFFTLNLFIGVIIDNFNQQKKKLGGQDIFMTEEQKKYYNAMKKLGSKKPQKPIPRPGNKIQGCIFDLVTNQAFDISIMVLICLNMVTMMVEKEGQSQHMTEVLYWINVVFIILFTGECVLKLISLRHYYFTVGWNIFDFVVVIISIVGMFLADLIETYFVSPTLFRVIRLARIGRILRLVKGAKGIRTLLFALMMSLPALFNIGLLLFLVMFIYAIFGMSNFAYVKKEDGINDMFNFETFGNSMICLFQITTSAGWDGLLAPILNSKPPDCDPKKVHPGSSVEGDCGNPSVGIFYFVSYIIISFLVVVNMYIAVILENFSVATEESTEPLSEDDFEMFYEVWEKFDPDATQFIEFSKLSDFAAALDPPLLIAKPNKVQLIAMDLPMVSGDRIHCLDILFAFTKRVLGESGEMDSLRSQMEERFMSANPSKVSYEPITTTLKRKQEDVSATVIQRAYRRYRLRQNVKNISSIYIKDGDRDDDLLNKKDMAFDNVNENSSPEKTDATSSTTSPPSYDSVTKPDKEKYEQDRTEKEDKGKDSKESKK
Format: cell-based
For `COc1ncc(-c2ccccc2Cc2cccc(-c3ccc(OCC(F)(F)F)nc3)n2)cn1` [Compound 13, 6-(2-(2-methoxypyrimidin-5-yl)benzyl)-6′-(2,2,2-trifluoroethoxy)-2,3′-bipyridine], the IC50 was 0.849 ± 0.069 µM.

Same assay, conditions: recombinant HEK293 cells expressing human Nav1.7 alpha subunit; CoroNa Green sodium dye; veratridine and scorpion venom as agonists; read-out: Nav1.7 Activity (μM) FLIPR assay IC50 (μM) ± SEM
Compound `Oc1ccccc1Cc1cccc(-c2ccc(OCC(F)(F)F)nc2)n1` [Compound 8, 2-((6′-(2,2,2-trifluoroethoxy)-[2,3′-bipyridin]-6-yl)methyl)phenol] has an IC50 greater than 20 µM.
Work on `COc1ncccc1-c1ccccc1Cc1cccc(-c2ccc(OCC(F)(F)F)nc2)n1` [Compound 11, 6-(2-(2-methoxypyridin-3-yl)benzyl)-6′-(2,2,2-trifluoroethoxy)-2,3′-bipyridine] yielded an IC50 greater than 20 µM.
With `Fc1ccc(-c2ccccc2Cc2cccc(-c3ccc(OCC(F)(F)F)nc3)n2)cn1` [Compound 12, 6-(2-(6-fluoropyridin-3-yl)benzyl)-6′-(2,2,2-trifluoroethoxy)-2,3′-bipyridine] the IC50 was greater than 20 µM.
For `CSc1ncc(-c2ccccc2Cc2cccc(-c3ccc(OCC(F)(F)F)nc3)n2)cn1` [Compound 14, 6-(2-(2-(methylthio)pyrimidin-5-yl)benzyl)-6′-(2,2,2-trifluoroethoxy)-2,3′-bipyridine], the IC50 was 0.947 ± 0.06 µM.
Work on `CN(C)c1ncc(-c2ccccc2Cc2cccc(-c3ccc(OCC(F)(F)F)nc3)n2)cn1` [Compound 15, N,N-dimethyl-5-(2-((6′-(2,2,2-trifluoroethoxy)-[2,3′-bipyridin]-6-yl)methyl)phenyl)pyrimidin-2-amine] yielded an IC50 of 0.34 ± 0.012 µM.
